Measurements reported in US20240150293A1, “SPIROCYCLOHEXANE DERIVATIVES, PHARMACEUTICAL COMPOSITIONS CONTAINING THEM AND THEIR USES AS ANTI-APOPTOTIC INHIBITORS” (LES LABORATOIRES SERVIER, priority 2021, published 2024).
Like-named read-outs stand apart in the source and are kept apart here.

Key:
[1] = biological target: Cy5-labelled Mcl1 (amino acids 171-321) C286S protein (UniProtKB Q07820) (Homo sapiens (Human), UniProt Q07820, C286S); test: Inhibition of Mcl-1 by the fluorescence quenching assay (Example A, Method B); assay type: binding
Cy5-labelled Mcl1 (amino acids 171-321) C286S protein, sequence (Q07820 171-321 C286S): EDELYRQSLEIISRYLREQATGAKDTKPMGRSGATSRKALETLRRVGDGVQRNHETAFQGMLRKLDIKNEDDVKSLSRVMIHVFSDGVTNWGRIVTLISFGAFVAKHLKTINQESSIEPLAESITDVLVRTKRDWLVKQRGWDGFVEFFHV
Outline: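 Cy5-labelled Mcl1 171-321 C286S (1 nM) quenched by TQ5WS-labelled PUMA peptide (10, 20 or 400 nM); displacement raises fluorescence (Ex 620/Em 680 nm). Buffer 10 mM HEPES, 150 mM NaCl, 0.05% Tween 20, pH 7.4, 5% DMSO; 2 h at room temperature, 11-point curves, IC50 converted to Ki (cKi/eKi).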

[2] = system: H929 multiple myeloma tumor line; test: In vitro cytotoxicity, MTT assay (Example B, Method A); assay type: cell-based; conditions: H929 cells, 48 hours exposure, read-out: C50
Protocol: The cytotoxicity studies were carried out on the H929 multiple myeloma tumor line.
The cells are distributed onto microplates and exposed to the test compounds for 48 hours. The cell viability is then quantified by a colorimetric assay, the Microculture Tetrazolium Assay (Carmichael et al, Cancer Res. 1987, 47, 939-942).
The results are expressed in C50 which means concentration corresponding to […] of effect/inhibition.

SMILES	Ki [1]	IC50 [2]	IC50 ([2]; Homo sapiens, NCI-H929, 48 h)
C[C@@H](COc1ccnc2c1[C@H]1CCC[C@H]1C2)C[C@H]1Cc2ccccc2[C@]12CC[C@@](Nc1cccc(Cl)c1)(C(=O)O)CC2 (single isomer, unassigned) [Example 621, (1r,2′S,4S)-4-(3-chloroanilino)-2′-[(2R)-3-{[(4bR*,7aR*)-4b,5,6,7,7a,8-hexahydropentaleno[2,1-b]pyridin-4-yl]oxy}-2-methylpropyl]-2′,3′-dihydrospiro[cyclohexane-1,1′-indene]-4-carboxylic acid]	37.6 nM	2520 nM	–
Cc1cc(OC[C@H](C)C[C@H]2Cc3ccccc3[C@]23CC[C@@](Nc2cccc(Cl)c2)(C(=O)O)CC3)c2c(n1)CCCC2C (single isomer, unassigned) [Example 663]	23.1 nM	3430 nM	–
C[C@@H](COc1ccnc2c1[C@@H](C)CC[C@H]2O)C[C@H]1Cc2ccccc2[C@]12CC[C@@](Nc1cccc(Cl)c1)(C(=O)O)CC2 [Example 674, (1r,2′S,4S)-4-(3-chloroanilino)-2′-[(2R)-3-{[(5S,8R)-8-hydroxy-5-methyl-5,6,7,8-tetrahydroquinolin-4-yl]oxy}-2-methylpropyl]-2′,3′-dihydrospiro[cyclohexane-1,1′-indene]-4-carboxylic acid]	6.95 nM	–	1710 nM
C[C@@H](COc1ccnc2c1[C@H](C)CC=C2)C[C@H]1Cc2ccccc2[C@]12CC[C@@](Nc1cccc(Cl)c1)(C(=O)O)CC2 [Example 677, (1r,2′S,4S)-4-(3-chloroanilino)-2′-[(2R)-2-methyl-3-{[(5R)-5-methyl-5,6-dihydroquinolin-4-yl]oxy}propyl]-2′,3′-dihydrospiro[cyclohexane-1,1′-indene]-4-carboxylic acid]	1.18 nM	–	245 nM
O=C(O)[C@]1(Nc2cccc(Cl)c2)CC[C@]2(CC1)C(CC(F)COc1ccnc3c1CCCC3)=Cc1ccccc12 (single isomer, unassigned) [Example 505, (1r,4r)-4-(3-chloroanilino)-2′-{2-fluoro-3-[(5,6,7,8-tetrahydroquinolin-4-yl)oxy]propyl}spiro[cyclohexane-1,1′-indene]-4-carboxylic acid]	23.4 nM	–	2380 nM
C[C@@H](CNc1ccnc2ccsc12)C[C@H]1Cc2ccccc2[C@]12CC[C@@](Nc1cccc(Cl)c1)(C(=O)O)CC2 [Example 627, (1r,2′S,4S)-4-(3-chloroanilino)-2′-{(2R)-2-methyl-3-[(thieno[3,2-b]pyridin-7-yl)amino]propyl}-2′,3′-dihydrospiro[cyclohexane-1,1′-indene]-4-carboxylic acid]	7.36 nM	–	1330 nM
C[C@@H](COc1ccnc2c1[C@@H](C)CC[C@H]2C)C[C@H]1Cc2ccccc2[C@]12CC[C@@](Nc1cccc(Cl)c1)(C(=O)O)CC2 (single isomer, unassigned) [Example 659, (1r,2′S,4S)-4-(3-chloroanilino)-2′-[(2R)-3-{[(5R*,8S*)-5,8-dimethyl-5,6,7,8-tetrahydroquinolin-4-yl]oxy}-2-methylpropyl]-2′,3′-dihydrospiro[cyclohexane-1,1′-indene]-4-carboxylic acid]	5.73 nM	559 nM	–
C[C@@H](COc1ccnc2c1CCC2O)C[C@H]1Cc2ccccc2[C@]12CC[C@@](Nc1cccc(Cl)c1)(C(=O)O)CC2 (single isomer, unassigned) [Example 608]	1.62 nM	–	792 nM
CC[C@@H]1CCCc2nccc(OC[C@H](C)C[C@H]3Cc4ccccc4[C@]34CC[C@@](Nc3cccc(Cl)c3)(C(=O)O)CC4)c21 [Example 657, (1r,2′S,4S)-4-(3-chloroanilino)-2′-[(2R)-3-{[(5R)-5-ethyl-5,6,7,8-tetrahydroquinolin-4-yl]oxy}-2-methylpropyl]-2′,3′-dihydrospiro[cyclohexane-1,1′-indene]-4-carboxylic acid]	2.94 nM	–	139 nM
C[C@H]1Cc2c(OC[C@H](C)C[C@H]3Cc4ccccc4[C@]34CC[C@@](Nc3cccc(Cl)c3)(C(=O)O)CC4)ccnc2[C@H](O)C1 (racemic) [Example 670, (1r,2′S,4S)-4-(3-chloroanilino)-2′-[(2R)-3-{[(6RS,8SR)-8-hydroxy-6-methyl-5,6,7,8-tetrahydroquinolin-4-yl]oxy}-2-methylpropyl]-2′,3′-dihydrospiro[cyclohexane-1,1′-indene]-4-carboxylic acid]	41.6 nM	–	3600 nM

Second part, led by results:

Ki [1]	SMILES	IC50 [2]	IC50 ([2]; Homo sapiens, NCI-H929, 48 h)
0.342 nM	C[C@@H](COc1ccnc2c1[C@H](C)CCC2)CC1=Cc2c(F)c(F)ccc2[C@]12CC[C@@](Nc1cccc(Cl)c1)(C(=O)O)CC2 [Example 744, (1r,4R)-4-(3-chloroanilino)-4′,5′-difluoro-2′-[(2R)-2-methyl-3-{[(5R)-5-methyl-5,6,7,8-tetrahydroquinolin-4-yl]oxy}propyl]spiro[cyclohexane-1,1′-indene]-4-carboxylic acid]	–	65.2 nM
0.446 nM	C[C@@H](COc1ccnc2c1[C@H](C)CCC2)C[C@H]1Cc2ccccc2[C@]12CC[C@@](Nc1cccc(Br)c1)(C(=O)O)CC2 [Example 711, (1r,2′S,4S)-4-(3-bromoanilino)-2′-[(2R)-2-methyl-3-{[(5R)-5-methyl-5,6,7,8-tetrahydroquinolin-4-yl]oxy}propyl]-2′,3′-dihydrospiro[cyclohexane-1,1′-indene]-4-carboxylic acid]	–	59.8 nM
7.68 nM	COCCOc1ccc2c(c1)[C@]1(CC[C@@](Nc3cccc(Cl)c3)(C(=O)O)CC1)[C@H](C[C@@H](C)COc1ccnc3ccsc13)C2 [Example 729, (1r,2′R,4R)-4-(3-chloroanilino)-6′-(2-methoxyethoxy)-2′-{(2R)-2-methyl-3-[(thieno[3,2-b]pyridin-7-yl)oxy]propyl}-2′,3′-dihydrospiro[cyclohexane-1,1′-indene]-4-carboxylic acid]	–	864 nM
1.58 nM	C[C@@H](COc1ccnc2c1[C@H](C)CCC2)CC1=Cc2c(Cl)c(F)ccc2[C@]12CC[C@@](Nc1cccc(Cl)c1)(C(=O)O)CC2 [Example 745, (1r,4R)-4′-chloro-4-(3-chloroanilino)-5′-fluoro-2′-[(2R)-2-methyl-3-{[(5R)-5-methyl-5,6,7,8-tetrahydroquinolin-4-yl]oxy}propyl]spiro[cyclohexane-1,1′-indene]-4-carboxylic acid]	–	66.4 nM
103 nM	CC[C@H]1CC[C@H](F)c2nccc(OC[C@H](C)C[C@H]3Cc4ccccc4[C@]34CC[C@@](Nc3cccc(Cl)c3)(C(=O)O)CC4)c21 [Example 696, (1r,2′S,4S)-4-(3-chloroanilino)-2′-[(2R)-3-{[(5S,8S)-5-ethyl-8-fluoro-5,6,7,8-tetrahydroquinolin-4-yl]oxy}-2-methylpropyl]-2′,3′-dihydrospiro[cyclohexane-1,1′-indene]-4-carboxylic acid]	–	5070 nM
0.19 nM	C[C@@H](COc1ccnc2c1[C@H](C)CCC2)CC1=Cc2ccc(CO)cc2[C@]12CC[C@@](Nc1cccc(Cl)c1)(C(=O)O)CC2 [Example 868, (1r,4R)-4-(3-chloroanilino)-6′-(hydroxymethyl)-2′-[(2R)-2-methyl-3-{[(5R)-5-methyl-5,6,7,8-tetrahydroquinolin-4-yl]oxy}propyl]spiro[cyclohexane-1,1′-indene]-4-carboxylic acid]	–	231 nM
0.423 nM	C[C@@H](COc1ccnc2c1[C@H](C)CCC2)C[C@@H]1Cc2cc(Cl)ccc2[C@]12CC[C@@](Nc1cccc(Cl)c1)(C(=O)O)CC2 [Example 779, (1r,2′R,4R)-5′-chloro-4-(3-chloroanilino)-2′-[(2R)-2-methyl-3-{[(5R)-5-methyl-5,6,7,8-tetrahydroquinolin-4-yl]oxy}propyl]-2′,3′-dihydrospiro[cyclohexane-1,1′-indene]-4-carboxylic acid]	–	143 nM
3.42 nM	C[C@@H](COc1ccnc2c1[C@@H](C)CCC2)C[C@H]1Cc2cc(Cl)c(O)cc2[C@]12CC[C@@](Nc1cccc(Cl)c1)(C(=O)O)CC2 [Example 814, (1r,2′S,4S)-5′-chloro-4-(3-chloroanilino)-6′-hydroxy-2′-[(2R)-2-methyl-3-{[(5S)-5-methyl-5,6,7,8-tetrahydroquinolin-4-yl]oxy}propyl]-2′,3′-dihydrospiro[cyclohexane-1,1′-indene]-4-carboxylic acid]	–	135 nM
4.71 nM	C[C@@H](COc1ccnc2c1[C@H](C)CCC2)C[C@H]1Cc2ccccc2[C@]12CC[C@@](Nc1cccc(C#N)c1)(C(=O)O)CC2 [Example 716, (1r,2′S,4S)-4-(3-cyanoanilino)-2′-[(2R)-2-methyl-3-{[(5R)-5-methyl-5,6,7,8-tetrahydroquinolin-4-yl]oxy}propyl]-2′,3′-dihydrospiro[cyclohexane-1,1′-indene]-4-carboxylic acid]	–	311 nM
1.27 nM	C[C@@H](COc1ccnc2c1[C@H](C)CCC2)C[C@@H]1Cc2ccccc2[C@]12CC[C@@](Nc1ccc(F)c(Cl)c1)(C(=O)O)CC2 [Example 703, (1r,2′R,4R)-4-(3-chloro-4-fluoroanilino)-2′-[(2R)-2-methyl-3-{[(5R)-5-methyl-5,6,7,8-tetrahydroquinolin-4-yl]oxy}propyl]-2′,3′-dihydrospiro[cyclohexane-1,1′-indene]-4-carboxylic acid]	–	169 nM
